According to patent US20220144838A1, “Compounds as Inhibitors of Macrophage Migration Inhibitory Factor” (NANJING IMMUNOPHAGE BIOTECH CO., LTD., priority 2019, published 2022):
Like-named read-outs stand apart in the source and are kept apart here.

Biological target: T1, MIF (Homo sapiens, UniProt P14174)
T1 sequence (P14174 2-115 limits assumed): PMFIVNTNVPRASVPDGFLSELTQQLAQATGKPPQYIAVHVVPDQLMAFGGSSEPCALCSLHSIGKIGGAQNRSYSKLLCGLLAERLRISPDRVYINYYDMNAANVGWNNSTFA
Test: MIF tautomerase assay using pHPP as substrate
Type: biochemical
Conditions: mean of multiple test results
Description: Tautomerase Assay Using pHPP as Substrate
This assay measured MIF's tautomerase activity in a cell-free system and was based on the determination of initial rates of the MIF-catalyzed conversion of the ketonic into the enolic tautomer of pHPP. This was achieved by spectrophotometric quantification of the complex between borate and the product of the reaction (enolic pHPP). The substrate was prepared by conversion of the enolic pHPP into its ketonic form. To achieve this, 0.5 M pHPP in methanol was diluted 10-fold with 50 mM sodium acetate buffer at pH 6.0, and then the suspension was shaken for 24 h at room temperature in darkness, and finally stored at 4° C. for not more than 1 week, with 5 min sonication being recommended before use.
Assays were performed in small-volume clear-bottom black 96 or 384-well polystyrene plates (Greiner Bio-One). First, 2 μL of the enzyme solution containing 6 nM of MIF in DPBS, 0.025% w/v BSA, and 300 μM CHAPS was dispensed onto sample and negative control wells using Multidrop Combi with metallic tip cassettes (Thermo Fisher Scientific) previously treated with Sigmacote. Then, 2 μL of the same buffer without MIF was dispensed onto positive control wells. The reaction was started by addition of the following to all wells: 2 μL of substrate solution containing 3 mM ketonic pHPP in 200 mM boric acid, 25 mM sodium phosphate, 0.025% w/v BSA, and 300 μM CHAPS at pH 6.0. In order to remove bubbles, the plate was centrifuged in an Allegra 25R centrifuge (Beckman Coulter, Inc., Brea, Calif.) at 1000 rpm for 2 min at room temperature. Then, the plate was read in an EnVision. Final concentrations of enzyme and substrate were 3 nM and 1.5 mM, respectively. Initial rates were calculated for each well as the slope of the absorbance progress curve.
All exemplified compounds (Examples 1-230) were tested in the MIF tautomerase assay or a similar assay described above. The data mentioned below represents a mean pIC50 value of multiple test results. It is understood that the data illustrated below may have reasonable variation depending on the specific conditions and procedures used by the person conducting the testing.

[1] = inhibition of the MIF enzyme in vitro, read-out: Tautomerase Inhibition pIC50 (converted)
[2] = FIGS. 1-5, read-out: pIC50 MIF tautomerase activity (converted)

| SMILES | IC50 [1] [nM] | IC50 [2] [nM] |
| --- | --- | --- |
| Cc1nc(N2CCN(c3ccc(O)cc3)CC2)nc2c1ncn2-c1cc(N2CCN(c3ccc(O)cc3)CC2)cnn1 [Example 64, 4-(4-(6-(2-(4-(4-hydroxyphenyl)piperazin-1-yl)-6-methyl-9H-purin-9-yl)pyridazin-4-yl)piperazin-1-yl)phenol] | 1000 to 9770 |  |
| Cc1nc(N2CCN(c3ccc(O)cc3)CC2)nc2c1ncn2-c1cccc(Cl)c1 [Example 65, 4-(4-(9-(3-chlorophenyl)-6-methyl-9H-purin-2-yl)piperazin-1-yl)phenol] | 1000 to 9770 |  |
| Nc1nc(N2CCN(c3ccc(O)cc3)CC2)nc2c1ncn2-c1ccccc1 [Example 66, 4-(4-(6-amino-9-phenyl-9H-purin-2-yl)piperazin-1-yl)phenol] | 1000 to 9770 |  |
| Cc1ccncc1-n1cnc2c(N)nc(N3CCN(c4ccc(O)cc4)CC3)nc21 [Example 67, 4-(4-(6-amino-9-(4-methylpyridin-3-yl)-9H-purin-2-yl)piperazin-1-yl)phenol] | 1000 to 9770 |  |
| Cc1cncc(-n2cnc3c(N)nc(N4CCN(c5ccc(O)cc5)CC4)nc32)c1 [Example 68, 4-(4-(6-amino-9-(5-methylpyridin-3-yl)-9H-purin-2-yl)piperazin-1-yl)phenol] | > 10000 |  |
| Nc1nc(N2CCN(c3ccc(O)cc3)CC2)nc2c1ncn2-c1ccc(Cl)cc1Cl [Example 69, 4-(4-(6-amino-9-(2,4-dichlorophenyl)-9H-purin-2-yl)piperazin-1-yl)phenol] | > 10000 |  |
| Cc1cc(C#N)ccc1-n1cnc2c(N)nc(N3CCN(c4ccc(O)cc4)CC3)nc21 [Example 70, 4-(6-amino-2-(4-(4-hydroxyphenyl)piperazin-1-yl)-9H-purin-9-yl)-3-methylbenzonitrile] | > 10000 |  |
| Nc1nc(N2CCN(c3ccc(O)cc3)CC2)nc2c1ncn2-c1ccccc1F [Example 71, 4-(4-(6-amino-9-(2-fluorophenyl)-9H-purin-2-yl)piperazin-1-yl)phenol] | 1000 to 9770 |  |
| Nc1nc(N2CCN(c3ccc(O)cc3)CC2)nc2c1ncn2-c1cccc(F)c1 [Example 72, 4-(4-(6-amino-9-(3-fluorophenyl)-9H-purin-2-yl)piperazin-1-yl)phenol] | 1000 to 9770 |  |
| Nc1nc(N2CCN(c3ccc(O)cc3)CC2)nc2c1ncn2-c1ccc(F)cc1 [Example 73, 4-(4-(6-amino-9-(4-fluorophenyl)-9H-purin-2-yl)piperazin-1-yl)phenol] | > 10000 |  |
| N#Cc1ccc(-n2cnc3c(N)nc(N4CCN(c5ccc(O)cc5)CC4)nc32)cc1 [Example 74, 4-(6-amino-2-(4-(4-hydroxyphenyl)piperazin-1-yl)-9H-purin-9-yl)benzonitrile] | 100 to 977 |  |
| Nc1nc(N2CCN(c3ccc(O)cc3)CC2)nc2c1ncn2-c1ccc(Cl)cc1 [Example 75, 4-(4-(6-amino-9-(4-chlorophenyl)-9H-purin-2-yl)piperazin-1-yl)phenol] | > 10000 |  |
| Cc1ccccc1-n1cnc2c(N)nc(N3CCN(c4ccc(O)cc4)CC3)nc21 [Example 76, 4-(4-(6-amino-9-(o-tolyl)-9H-purin-2-yl)piperazin-1-yl)phenol] | > 10000 |  |
| Nc1nc(N2CCN(c3ccc(O)cc3)CC2)nc2c1ncn2-c1cccc(O)c1 [Example 77, 3-(6-amino-2-(4-(4-hydroxyphenyl)piperazin-1-yl)-9H-purin-9-yl)phenol] | 1000 to 9770 |  |
| Nc1nc(N2CCN(c3ccc(O)cc3)CC2)nc2c1ncn2-c1cccc(-c2ccccc2)c1 [Example 78, 4-(4-(9-([1,1′-biphenyl]-3-yl)-6-amino-9H-purin-2-yl)piperazin-1-yl)phenol] | 1000 to 9770 |  |
| COc1ncccc1-n1cnc2c(N)nc(N3CCN(c4ccc(O)cc4)CC3)nc21 [Example 79, 4-(4-(6-amino-9-(2-methoxypyridin-3-yl)-9H-purin-2-yl)piperazin-1-yl)phenol] | > 10000 |  |
| COc1cc(-n2cnc3c(N)nc(N4CCN(c5ccc(O)cc5)CC4)nc32)ccn1 [Example 82, 4-(4-(6-amino-9-(2-methoxypyridin-4-yl)-9H-purin-2-yl)piperazin-1-yl)phenol] | 100 to 977 |  |

| SMILES | IC50 [1] [nM] | IC50 [2] [nM] |
| --- | --- | --- |
| CCOc1ncccc1-n1cnc2c(N)nc(N3CCN(c4ccc(O)cc4)CC3)nc21 [Example 83, 4-(4-(6-amino-9-(2-ethoxypyridin-3-yl)-9H-purin-2-yl)piperazin-1-yl)phenol] | 1000 to 9770 |  |
| COc1ccc(-n2cnc3c(N)nc(N4CCN(c5ccc(O)cc5)CC4)nc32)c(OC)n1 [Example 84, 4-(4-(6-amino-9-(2,6-dimethoxypyridin-3-yl)-9H-purin-2-yl)piperazin-1-yl)phenol] | 1000 to 9770 |  |
| COc1ccc(-n2cnc3c(N)nc(N4CCN(c5ccc(O)cc5)CC4)nc32)cn1 [Example 85, 4-(4-(6-amino-9-(6-methoxypyridin-3-yl)-9H-purin-2-yl)piperazin-1-yl)phenol] | 100 to 977 |  |
| N#Cc1ccc(-n2cnc3c(N)nc(N4CCN(c5ccc(O)cc5)CC4)nc32)cn1 [Example 86, 5-(6-amino-2-(4-(4-hydroxyphenyl)piperazin-1-yl)-9H-purin-9-yl)picolinonitrile] | 100 to 977 |  |
| Cn1cc(-n2cnc3c(N)nc(N4CCN(c5ccc(O)cc5)CC4)nc32)cn1 [Example 88, 4-(4-(6-amino-9-(1-methyl-1H-pyrazol-4-yl)-9H-purin-2-yl)piperazin-1-yl)phenol] | 1000 to 9770 |  |
| Nc1nc(N2CCN(c3ccc(O)cc3)CC2)nc2c1ncn2Cc1ccccc1 [Example 89, 4-(4-(6-amino-9-benzyl-9H-purin-2-yl)piperazin-1-yl)phenol] | 1000 to 9770 |  |
| Oc1ccc(N2CCN(c3nc(NCc4ccccc4)c4ncn(-c5cccnc5)c4n3)CC2)cc1 [Example 90, 4-(4-(6-(benzylamino)-9-(pyridin-3-yl)-9H-purin-2-yl)piperazin-1-yl)phenol] | 1000 to 9770 |  |
| Oc1ccc(N2CCN(c3nc(NCCc4ccccc4)c4ncn(-c5cccnc5)c4n3)CC2)cc1 [Example 91, 4-(4-(6-(phenethylamino)-9-(pyridin-3-yl)-9H-purin-2-yl)piperazin-1-yl)phenol] | 100 to 977 |  |
| Oc1ccc(N2CCN(c3nc(N4CCCC4)c4ncn(-c5cccnc5)c4n3)CC2)cc1 [Example 92, 4-(4-(9-(pyridin-3-yl)-6-(pyrrolidin-1-yl)-9H-purin-2-yl)piperazin-1-yl)phenol] | 1000 to 9770 |  |
| OC[C@H]1CCCN1c1nc(N2CCN(c3ccc(O)cc3)CC2)nc2c1ncn2-c1cccnc1 [Example 93, (R)-4-(4-(6-(2-(hydroxymethyl)pyrrolidin-1-yl)-9-(pyridin-3-yl)-9H-purin-2-yl)piperazin-1-yl)phenol] | 100 to 977 |  |
| OCC1CCN(c2nc(N3CCN(c4ccc(O)cc4)CC3)nc3c2ncn3-c2cccnc2)C1 (stereo not drawn) [Example 94, 4-(4-(6-(3-(hydroxymethyl)pyrrolidin-1-yl)-9-(pyridin-3-yl)-9H-purin-2-yl)piperazin-1-yl)phenol] | 100 to 977 |  |
| Oc1ccc(N2CCN(c3nc(NC4CCCC4)c4ncn(-c5cccnc5)c4n3)CC2)cc1 [Example 96, 4-(4-(6-(cyclopentylamino)-9-(pyridin-3-yl)-9H-purin-2-yl)piperazin-1-yl)phenol] | 1000 to 9770 |  |
| O=C(Cn1cnc2c(-n3ncc4ccccc43)nc(N3CCN(c4ccc(O)cc4)CC3)nc21)NS(=O)(=O)c1ccccc1 [Example 97, 2-(2-(4-(4-hydroxyphenyl)piperazin-1-yl)-6-(1H-indazol-1-yl)-9H-purin-9-yl)-N-(phenylsulfonyl)acetamide] | 100 to 977 |  |
| O=C(Cn1cnc2c(-n3ncc4ccccc43)nc(N3CCN(c4ccc(O)cc4)CC3)nc21)NS(=O)(=O)Cc1ccccc1 [Example 98, N-(benzylsulfonyl)-2-(2-(4-(4-hydroxyphenyl)piperazin-1-yl)-6-(1H-indazol-1-yl)-9H-purin-9-yl)acetamide] | 100 to 977 |  |
| O=C(O)Cn1cnc2c(-n3ncc4c(C(=O)O)cccc43)nc(N3CCN(c4ccc(O)cc4)CC3)nc21 [Example 99, 1-(9-(carboxymethyl)-2-(4-(4-hydroxyphenyl)piperazin-1-yl)-9H-purin-6-yl)-1H-indazole-4-carboxylic acid] | 10 to 97.7 | ≤ 100 |
| CC(C)(C)OC(=O)Cn1cnc2c(-n3nnc4c(C(=O)O)cccc43)nc(N3CCN(c4ccc(O)cc4)CC3)nc21 [Example 100, 1-(9-(2-(tert-butoxy)-2-oxoethyl)-2-(4-(4-hydroxyphenyl)piperazin-1-yl)-9H-purin-6-yl)-1H-benzo[d][1,2,3]triazole-4-carboxylic acid] | 10 to 97.7 | ≤ 100 |
| COC(=O)c1ccc(-n2cnc3c(N)nc(N4CCN(c5ccc(O)cc5)CC4)nc32)cc1 [Example 101, methyl 4-(6-amino-2-(4-(4-hydroxyphenyl)piperazin-1-yl)-9H-purin-9-yl)benzoate] | 100 to 977 |  |
